These results are taken from ChEMBL document CHEMBL1201862, “PubChem BioAssay data set” (2004).

Among the test systems are NCI-H23; A549; T47D; MDA-MB-231; M14; Hs-578T; OVCAR-4; A498; K562; HCT-116; OVCAR-5; OVCAR-8; OVCAR-3; HCT-15; SW-620; 786-0; SK-OV-3; SK-MEL-2; IGROV-1; LOX IMVI.
Holding throughout (assay): DTP human tumour cell line panel, 48 h

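Following 48 hours of exposure in 96-well plates, responses at five concentrations were used to interpolate endpoints linearly. GI50 is the concentration that inhibits growth by half.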 The source made the active and inactive calls. No stated cut-off is given here; in the data, active = GI50 up to about 1.1 µM and inactive = higher.

By GI50 is commonly meant the concentration giving 50% growth inhibition.

In the case of `N#Cc1nc2cc(Cl)ccc2nc1N1CCN(c2ccc([N+](=O)[O-])cc2)CC1`, the GI50 in the assay on NCI-H23, in the assay with A549, in the assay on T47D, in the assay with MDA-MB-231, in the assay with M14 and in the assay with Hs-578T was > 100 µM (inactive) in each case. In addition, the GI50 in the assay with OVCAR-4, in the assay on A498, in the assay with K562, with HCT-116, in the assay with OVCAR-5 and in the assay on OVCAR-8 was > 100 µM (inactive) throughout. In addition, the GI50 is > 100 µM (inactive) in the assay on OVCAR-3; greater than 100 µM in the assay on HCT-15; > 100 µM (inactive) in the assay on SW-620; > 100 µM (inactive) with 786-0; > 100 µM (inactive) in the assay with SK-OV-3.

For `O=c1cc(/N=N\c2ccc(Br)cc2)[nH]c(=S)[nH]1`, the GI50 with SK-MEL-2 is 11.9 µM (inactive); in the assay on NCI-H23, 32.7 µM (inactive); with A549, > 100 µM (inactive); in the assay with IGROV-1 it was 53.1 µM (inactive); in the assay on T47D, 17.3 µM (inactive); with MDA-MB-231, 17.6 µM (inactive). Moreover, the GI50 with M14 is 15.7 µM (inactive); in the assay with LOX IMVI, 15.3 µM (inactive); with Hs-578T it was 32.7 µM (inactive); in the assay on OVCAR-4, 18.1 µM (inactive); in the assay with K562, 21.7 µM (inactive); in the assay with HCT-116 it was 18.2 µM (inactive). Also, the GI50 in the assay on OVCAR-5 was 25.6 µM (inactive); with OVCAR-8, 23.1 µM (inactive); with OVCAR-3, 15.4 µM (inactive); with HCT-15 it was 14.9 µM; in the assay on SW-620 it was 27.2 µM (inactive); in the assay with 786-0, 4.7 µM (inactive). Also, in the assay on SK-OV-3, the GI50 is > 100 µM (inactive).

Regarding `CCCCCCOP(=O)(OCCCCCC)OC(C(=O)OC)C(F)(F)F` (centres undefined), the GI50 in the assay on SK-MEL-2, in the assay on NCI-H23, in the assay with A549, in the assay with IGROV-1, with T47D and in the assay with MDA-MB-231 was > 100 µM (inactive) throughout. Besides, the GI50 with M14, in the assay on LOX IMVI, in the assay on Hs-578T, in the assay on OVCAR-4, in the assay on K562 and in the assay on HCT-116 was > 100 µM (inactive) throughout. The GI50 in the assay with OVCAR-5 was > 100 µM (inactive); with OVCAR-8, > 100 µM (inactive); with OVCAR-3 it was > 100 µM (inactive); in the assay with HCT-15, greater than 100 µM; in the assay on SW-620 it was > 100 µM (inactive); in the assay on 786-0, > 100 µM (inactive). For the same compound, the GI50 in the assay on SK-OV-3 is > 100 µM (inactive).

Consider `COC1CC(NC(=O)C(F)(F)F)C(OC(C)=O)C(C)O1` (centres undefined), for which the GI50 in the assay on SK-MEL-2, in the assay with NCI-H23, with A549, in the assay with IGROV-1, with T47D and in the assay on MDA-MB-231 was > 100 µM (inactive) throughout. For the same compound, the GI50 with M14, in the assay with LOX IMVI, in the assay on Hs-578T, in the assay with OVCAR-4, with K562 and with HCT-116 was > 100 µM (inactive) throughout. Further, the GI50 is > 100 µM (inactive) with OVCAR-5; > 100 µM (inactive) in the assay on OVCAR-8; > 100 µM (inactive) in the assay with OVCAR-3; greater than 100 µM in the assay with HCT-15; > 100 µM (inactive) in the assay with SW-620; > 100 µM (inactive) in the assay with 786-0. Also, the GI50 in the assay on SK-OV-3 is > 100 µM (inactive).
